What all share (assay type): biochemical
One assay has as its target T1, human factor VIIa (Homo sapiens, UniProt P08709).
T1 construct: Factor VIIa in the extrinsic pathway; purchased BiosPacific, Emeryville, Calif
T1 sequence (P08709 213-466 limits assumed): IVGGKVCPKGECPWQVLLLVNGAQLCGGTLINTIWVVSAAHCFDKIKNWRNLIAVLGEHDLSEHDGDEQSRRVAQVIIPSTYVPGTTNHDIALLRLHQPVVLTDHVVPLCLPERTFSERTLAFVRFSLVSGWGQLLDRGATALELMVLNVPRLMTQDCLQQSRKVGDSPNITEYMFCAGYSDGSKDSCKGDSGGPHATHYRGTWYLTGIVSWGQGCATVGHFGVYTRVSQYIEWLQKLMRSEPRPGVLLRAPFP
T1 sequence (P08709 61-212 partner limits assumed): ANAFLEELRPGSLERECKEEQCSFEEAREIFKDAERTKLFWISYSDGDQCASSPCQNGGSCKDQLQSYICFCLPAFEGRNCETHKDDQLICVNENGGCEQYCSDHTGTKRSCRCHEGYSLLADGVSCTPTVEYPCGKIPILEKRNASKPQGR
Description: Inhibition of human factor VIIa (chromogenic substrate S2288), inhibitory constant Ki. The following applies: 50 nM human factor VIIa, S2288, pH 7.6, 4 mM CaCl2, 30 minutes; read-out: Ki values for inhibition of Serine Proteases: Factor VIIa. The procedure:
(§1) The effectiveness of compounds of the present invention as inhibitors of blood coagulation proteases was determined using purified human proteases and synthetic substrates following procedures similar to those described in Kettner et al. (1990).
(§2) For these assays, the rate of enzymatic (thrombin, Factor Xa, and Factor VIIa) hydrolysis of chromogenic substrates (S2238 (H-D-Phe-Pip-Arg-pNA), S2222, and S2288, respectively; Kabi Pharmacia, Franklin, Ohio.) was measured both in the absence and presence of compounds of the present invention. […] A decrease in the rate of absorbance change at 405 nm in the presence of inhibitor is indicative of enzyme inhibition. The results of this assay are expressed as inhibitory constant, Ki.
(§3) Thrombin and Xa determinations were made in 0.10M sodium phosphate buffer, pH 7.5, containing 0.20M NaCl, and 0.5% PEG 8000. VIIa determinations were made in 0.05M tris buffer, pH 7.6, containing 0.10M NaCl, 4 mM CaCl2, and 0.1% bovine serum albumin. The Michaelis constant, Km, for substrate hydrolysis was determined at 5° C. using the method of Lineweaver and Burk.
(§4) Values of Ki were determined by allowing 0.2-0.5 nM human thrombin or human factor Xa (Enzyme Research Laboratories, South Bend, Ind.), or 50 nM human factor VIIa (BiosPacific, Emeryville, Calif.) react with the substrate (0.20 mM-1 mM) in the presence of inhibitor. Reactions were allowed to go for 30 minutes and the velocities (rate of absorbance change vs time) were measured in the time frame of 25-30 minutes. The following relationship was used to calculate Ki values. [formula] where: vo is the velocity of the control in the absence of inhibitor;
(§5) vs is the velocity in the presence of inhibitor;
(§6) I is the concentration of inhibitor;
(§7) Ki is the dissociation constant of the enzyme: inhibitor complex;
(§8) S is the concentration of substrate;
(§9) Km is the Michaelis constant.

For a further assay, the target named is T2, human factor Xa (Homo sapiens, UniProt P00742).
T2 construct: purchased Enzyme Research Laboratories, South Bend, Ind
T2 sequence (P00742 235-488 limits assumed): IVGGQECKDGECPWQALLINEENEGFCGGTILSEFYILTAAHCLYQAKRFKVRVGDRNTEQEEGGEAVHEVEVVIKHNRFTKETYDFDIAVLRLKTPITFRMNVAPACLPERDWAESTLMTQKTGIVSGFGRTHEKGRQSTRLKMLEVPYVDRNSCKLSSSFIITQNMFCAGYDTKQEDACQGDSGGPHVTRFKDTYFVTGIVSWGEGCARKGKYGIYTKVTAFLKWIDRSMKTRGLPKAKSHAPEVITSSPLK
T2 sequence (P00742 41-179 partner limits assumed): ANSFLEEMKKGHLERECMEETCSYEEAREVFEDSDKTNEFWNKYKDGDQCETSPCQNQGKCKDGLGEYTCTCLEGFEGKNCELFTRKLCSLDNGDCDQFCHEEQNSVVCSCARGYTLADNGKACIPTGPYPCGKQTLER
The assay is described as follows: Inhibition of human factor Xa (chromogenic substrate S2222), inhibitory constant Ki. The following applies: S2222, pH 7.5, 30 minutes, read-out: Ki values for inhibition of Serine Proteases: Factor Xa. The procedure: as §1, §2, §3, §4, §5, §6, §7, §8, §9

The target in another assay is T3, human thrombin (Homo sapiens, UniProt P00734).
T3 construct: purchased Enzyme Research Laboratories, South Bend, Ind
The assay is described as follows: Inhibition of human thrombin (chromogenic substrate S2238), inhibitory constant Ki. The following applies: 0.2-0.5 nM human thrombin, S2238, pH 7.5, 30 minutes; read-out: Ki values for inhibition of Serine Proteases: Thrombin. The procedure:
as §1, §2, §3, §4, §5, §6, §7, §8, §9

Each structure is given as a SMILES string.

For the molecule `CC1(C)C2CC3OB([C@H](CCCNC(=N)N)NC(=O)Cn4nc(Cc5ccccc5)nc4Cc4ccccc4)OC3(C)C1C2` (single isomer, unassigned) [Example 967], the Ki at human factor VIIa is less than 500 nM; at human factor Xa, 500 to 50000 nM; on human thrombin, less than 500 nM.
For the molecule `CC1(C)C2CC3OB([C@H](CCCNC(=N)N)NC(=O)Cn4nc(-c5cccc([N+](=O)[O-])c5)nc4Cc4ccccc4)OC3(C)C1C2` (single isomer, unassigned) [Example 969], the Ki on human factor VIIa was 500 to 50000 nM; at human factor Xa, 500 to 50000 nM; at human thrombin it was less than 500 nM.
In the case of `COCCC[C@H](NC(=O)Cn1nc(CC#N)nc1Cc1ccccc1)B1OC2CC3CC(C3(C)C)C2(C)O1` (single isomer, unassigned) [Example 1352], the Ki was 500 to 50000 nM at human factor Xa and less than 500 nM on human thrombin.
For the molecule `CC1(C)C2CC3OB([C@H](CCCCN)NC(=O)Cn4ncnc4CCc4ccccc4)OC3(C)C1C2` (single isomer, unassigned) [Example 1431], at human thrombin, the Ki is less than 500 nM.
With `CC1(C)C2CC3OB([C@H](CCCCN)NC(=O)Cn4nc(CO)nc4CCc4ccccc4)OC3(C)C1C2` (single isomer, unassigned) [Example 1459], the Ki at human factor VIIa was 500 to 50000 nM; on human factor Xa it was 500 to 50000 nM; at human thrombin, less than 50000 nM.
Regarding `CC1(C)C2CC3OB([C@H](CCCCN)NC(=O)Cn4nc(CCc5ccccc5)nc4CCc4ccccc4)OC3(C)C1C2` (single isomer, unassigned) [Example 1467], the inhibition constant Ki was 500 to 50000 nM on human factor VIIa and less than 500 nM at human thrombin.
In the case of `CC1(C)C2CC3OB([C@H](CCCCN)NC(=O)Cn4nc(Cc5nn[nH]n5)nc4Cc4ccccc4)OC3(C)C1C2` (single isomer, unassigned) [Example 2067], on human thrombin, the Ki is less than 500 nM.
Consider `CC1(C)C2CC3OB([C@H](CCCCN)NC(=O)Cn4nc(COCc5ccccc5)nc4CCc4ccccc4)OC3(C)C1C2` (single isomer, unassigned) [Example 2068], for which the Ki at human factor VIIa is 500 to 50000 nM; at human factor Xa, 500 to 50000 nM; on human thrombin, less than 50000 nM.
As to `CC1(C)C2CC3OB([C@H](CCCCN)NC(=O)Cn4cnc(-c5ccccc5)n4)OC3(C)C1C2` (single isomer, unassigned) [Example 2073], the Ki on human factor VIIa was 500 to 50000 nM; on human factor Xa it was 500 to 50000 nM; on human thrombin, less than 500 nM.
Regarding `Cc1nc(-c2ccccc2)nn1CC(=O)N[C@@H](CCCCN)B1OC2CC3CC(C3(C)C)C2(C)O1` (single isomer, unassigned) [Example 2074], the Ki on human factor VIIa is 500 to 50000 nM; on human factor Xa, 500 to 50000 nM; at human thrombin, less than 500 nM.
In the case of `CC1(C)C2CC3OB([C@H](CCCCN)NC(=O)Cn4cnc(Cc5ccccc5)n4)OC3(C)C1C2` (single isomer, unassigned) [Example 2411], on human thrombin, the Ki is less than 500 nM.
As for `Cc1nc(Cc2ccccc2)nn1CC(=O)N[C@@H](CCCCN)B1OC2CC3CC(C3(C)C)C2(C)O1` (single isomer, unassigned) [Example 2412], the Ki is 500 to 50000 nM on human factor VIIa, 500 to 50000 nM at human factor Xa and less than 500 nM on human thrombin.
As to `CCCc1nc(Cc2ccccc2)nn1CC(=O)N[C@@H](CCCCN)B1OC2CC3CC(C3(C)C)C2(C)O1` (single isomer, unassigned) [Example 2414], the results for the Ki at human factor VIIa, on human factor Xa and on human thrombin were 500 to 50000 nM, 500 to 50000 nM and less than 500 nM, respectively.
Consider `CSCc1nc(Cc2ccccc2)nn1CC(=O)N[C@@H](CCCCN)B1OC2CC3CC(C3(C)C)C2(C)O1` (single isomer, unassigned) [Example 2416], for which the values for the Ki on human factor VIIa, on human factor Xa and at human thrombin were 500 to 50000 nM, 500 to 50000 nM and less than 500 nM, respectively.
For `CC1(C)C2CC3OB([C@H](CCCCN)NC(=O)Cn4nc(Cc5ccccc5)nc4CC#N)OC3(C)C1C2` (single isomer, unassigned) [Example 2422], the Ki is 500 to 50000 nM at human factor VIIa, 500 to 50000 nM at human factor Xa and less than 500 nM at human thrombin.
For the molecule `CC1(C)C2CC3OB([C@H](CCCCN)NC(=O)Cn4nc(Cc5ccccc5)nc4CC(=O)O)OC3(C)C1C2` (single isomer, unassigned) [Example 2430], the Ki at human factor VIIa is more than 500000 nM; at human factor Xa, 500 to 50000 nM; at human thrombin, less than 50000 nM.
With `CC1(C)C2CC3OB([C@H](CCCCN)NC(=O)Cn4cnc(CCc5ccccc5)n4)OC3(C)C1C2` (single isomer, unassigned) [Example 2752], the Ki on human thrombin was less than 500 nM.
Take `CC1(C)C2CC3OB([C@H](CCCCN)NC(=O)Cc4nc(Cc5ccccc5)n(Cc5ccccc5)n4)OC3(C)C1C2` (single isomer, unassigned) [Example 3349]: the results for the Ki on human factor Xa and at human thrombin were 500 to 50000 nM and less than 500 nM, respectively.
On to `CC(C)(C)OC(=O)Nc1cccc(-c2ccc(C(=O)N[C@@H](CCCNC(=N)N)B3OC4CC5CC(C5(C)C)C4(C)O3)s2)c1` (single isomer, unassigned) [Example 5426], for which the Ki on human factor Xa and on human thrombin was less than 500 nM in each case.
As to `CC(C)(C)OC(=O)Nc1cccc(-c2ccc(C(=O)N[C@@H](CCCNC(=N)N)B3OC4CC5CC(C5(C)C)C4(C)O3)o2)c1` (single isomer, unassigned) [Example 5529], the Ki on human factor Xa and at human thrombin was less than 500 nM in each case.
Take `CC1(C)[C@@H]2C[C@H]3OB([C@H](CCCNC(=N)N)NC(=O)c4ccc(-c5ccccc5)cc4)O[C@@]3(C)[C@H]1C2` [Example 1, N^1-(4-Phenylbenzoyl)boroarginine (+)-Pinanediol, Bisulfite]: the Ki at human factor Xa is 500 to 50000 nM; at human thrombin, less than 500 nM.
For `Cc1cc(-c2ccccc2)ccc1C(=O)N[C@@H](CCCNC(=N)N)B1O[C@@H]2C[C@@H]3C[C@@H](C3(C)C)[C@]2(C)O1` [Example 29], on human thrombin, the Ki was less than 500 nM.
Consider `Cc1cc(-c2ccccc2)ccc1C(=O)N[C@@H](CCCNC(=N)N)B(O)O` [Example 129], for which the Ki on human factor Xa and on human thrombin was less than 500 nM throughout.
For `CC(C)(C)NS(=O)(=O)c1ccccc1-c1ccc(C(=O)N[C@@H](CCCNC(=N)N)B2O[C@@H]3C[C@@H]4C[C@@H](C4(C)C)[C@]3(C)O2)c([N+](=O)[O-])c1` [Example 288], the Ki at human factor VIIa and on human thrombin was less than 500 nM in each case.
Consider `CC1(C)[C@@H]2C[C@H]3OB([C@H](CCCCN)NC(=O)Cn4ncnc4Cc4ccccc4)O[C@@]3(C)[C@H]1C2` [Example 887], for which the Ki on human thrombin was less than 500 nM.
On the same count and under the same terms, the same measure for `CC1(C)[C@@H]2C[C@H]3OB([C@H](CCCCN)NC(=O)Cn4nc(-c5ccccc5)nc4Cc4ccccc4)O[C@@]3(C)[C@H]1C2` [Example 920]: less than 500 nM.
For `NCCCC[C@H](NC(=O)Cn1ncnc1Cc1ccccc1)B(O)O` [Example 977], the Ki at human thrombin was less than 500 nM.
Still for that read-out and setting: the value for `NCCCC[C@H](NC(=O)Cn1ncnc1CCc1ccccc1)B(O)O` [Example 1521] was less than 500 nM.
`NCCCC[C@H](NC(=O)Cn1nc(CCc2ccccc2)nc1CCc1ccccc1)B(O)O` [Example 1557]: the results for the Ki at human factor VIIa and on human thrombin were 500 to 50000 nM and less than 500 nM, respectively.
`NCCCC[C@H](NC(=O)Cn1cnc(CCc2ccccc2)n1)B(O)O` [Example 2837]: at human thrombin, the inhibitory constant (Ki) was less than 50000 nM.
On to `CC1(C)[C@@H]2C[C@H]3OB([C@H](CCCCN)NC(=O)c4ccc(-c5ccccc5)nc4)O[C@@]3(C)[C@H]1C2` [Example 4064], for which the Ki was 500 to 50000 nM at human factor Xa and less than 50000 nM on human thrombin.
For `NCCCC[C@H](NC(=O)c1ccc(-c2ccccc2)nc1)B(O)O` [Example 4065], the values for the Ki at human factor Xa and at human thrombin were 500 to 50000 nM and less than 50000 nM, respectively.
